{"source": "patent US20220048988A1", "about": "“CELLS EXPRESSING ANTIBODIES TARGETING HUMAN IMMUNODEFICIENCY VIRUS AND METHODS OF USING THE SAME” (priority 2018, published 2022)", "molecules": {"B1": {"name": "T cell-secreted 10-1074 antibody from the 10-1074 Ab construct (IgG3 constant region) (antibody, V domains shown)", "VH": "QVQLQESGPGLVKPSETLSVTCSVSGDSMNNYYWTWIRQSPGKGLEWIGYISDRESATYNPSLNSRVVISRDTSKNQLSLKLNSVTPADTAVYYCATARRGQRIYGVVSFGEFFYYYSMDVWGKGTTVTVSS", "VL": "SYVRPLSVALGETARISCGRQALGSRAVQWYQHRPGQAPILLIYNNQDRPSGIPERFSGTPDINFGTRATLTISGVEAGDEADYYCHMWDSRSGFSWSFGGATRLTVLV"}, "B2": {"name": "10-1074 antibody (purified) (antibody, V domains shown)", "VH": "B1 VH", "VL": "SYVRPLSVALGETARISCGRQALGSRAVQWYQHRPGQAPILLIYNNQDRPSGIPERFSGTPDINFGTRATLTISGVEAGDEADYYCHMWDSRSGFSWSFGGATRLTVL"}}, "key": {"[1]": {"system": "viruses isolated from quantitative viral outgrowth assay (QVOA) supernatants", "assay": "Infected-cell binding with viruses isolated from QVOA supernatants", "design": "species or system HIV", "text": "(§1) We developed a method to perform paired testing of neutralization and infected-cell binding (predictive of ADCC^6) and applied this to 36 viruses that we isolated from quantitative viral outgrowth assay (QVOA) supernatants, using a panel of 14 clinically relevant bnAbs."}, "[2]": {"system": "viruses isolated from quantitative viral outgrowth assay (QVOA) supernatants", "assay": "Neutralization of viruses isolated from QVOA supernatants", "format": "cell-based, HIV", "text": "as §1"}, "[3]": {"system": "HIV-infected CD4+ T-cells", "assay": "Binding of secreted 10-1074 bnAb to HIV-infected CD4+ T-cells (flow cytometry)", "details": "virus from latent reservoir of participant OM5334, high MOI (~70% Gag+)", "text": "Binding of secreted 10-1074 bnAb to HIV-Infected CD4^+ T-cells. […] These cells were then stained with a fluorochrome-conjugated anti-human-IgG1 antibody, and analyzed by flow cytometry. […] We therefore performed an additional experiment using a lower multiplicity of infection (MOI) of the HIV molecular clone SF162. […] However, it has been well-established that Ab-binding to infected cells is predictive of ADCC^6."}, "pseudovirus": {"system": "pseudovirus", "assay": "Standard pseudovirus neutralization assay", "format": "cell-based, HIV", "experimental": "Virus neutralization by secreted 10-1074. We also tested whether the supernatants secreted from TbnAb are capable of neutralizing HIV by using a standard pseudovirus assay. Briefly, supernatants obtained from TbnAbs were diluted five fold and incubated with pseudovirus. Target cells were then added, and a single-round of infection was allowed to proceed for 48 h^1. In certain lines, we observed 20-30% neutralization of virus at this single concentration (data not shown). […] (data not shown). […] Thus, the data support that the 10-1074 in these supernatants is functionally equivalent to purified 10-1074 on a per concentration basis."}, "HIV SF162": {"system": "HIV SF162", "assay": "Viral inhibition assay (p24)", "format": "cell-based", "details": "antibody alone, absence of NK cells, n=2 replicates"}, "HIV": {"system": "HIV", "details": "in a subset of the population; cited from earlier work"}, "[4]": {"system": "HIV envelope expressing HeLa cells", "assay": "HIV binding: HIV envelope expressing HeLa cells (flow cytometry)", "details": "supernatant of transduced cells", "experimental": "HIV envelope expressing HeLa cells were obtained from NIH AIDS Reagent Program (69T1 RevEnv Cells, #3336). HeLa Envelope cells were fixed with 4.2% paraformaldehyde (BD, #554655) for 20 minutes at 4° C. Cells were washed in chilled Facs Buffer (PBS+2% FBS) and incubated in supernatant containing secreted antibody from transduced Jurkat T cells or non-specific antibodies from nontransduced Jurkat T cells for 1 hour at room temperature. Cells were washed an additional two times in Facs Buffer and incubated with goat anti-human IgG (H+L) FITC (Life Technologies, #H10301) for 30 minutes at room temperature.\nTo test whether the T cell secreted antibodies maintain their ability to recognize HIV envelope, we used HeLa cells expressing Env obtained from the AIDS reagent program."}, "non-expressing cells": {"system": "non-expressing cells", "assay": "HIV binding: non-expressing cells (flow cytometry)", "details": "supernatant of transduced cells"}, "[5]": {"molecular_target": "HIV envelope (Env) expressed on HeLa cells (69T1 RevEnv Cells) (HIV)", "assay": "cell-based or functional assay"}, "[6]": {"molecular_target": "36 viruses isolated from quantitative viral outgrowth assay (QVOA) supernatants", "assay": "cell-based or functional assay"}}}
{"molecule": "10-1074: Monoclonal antibody 10-1074 targets the V3 glycan supersite on the HIV-1 envelope (Env) protein; broadly neutralizing", "values": [{"measurement": "binding characteristics (breadth and potency)", "setting": "[1]; 36 viruses, panel of 14 bnAbs", "result": "superior binding characteristics"}, {"measurement": "infected cell binding", "setting": "[1]; OM5162 virus isolate #3", "result": "lack of 10-1074 binding"}, {"measurement": "infected cell binding", "setting": "[1]; patient OM5162 virus isolate #1", "result": "binding"}, {"measurement": "viruses potently neutralized", "setting": "[2]; 36 viruses isolated from QVOA supernatants", "result": "24/36"}, {"measurement": "median IC50 against reservoir viruses", "setting": "[2]; reservoir viruses", "result": 0.3, "unit": "µg/mL"}, {"measurement": "binding to HIV-infected CD4+ T cells", "setting": "[3]", "result": "efficient binding"}, {"measurement": "concentration giving 20-30% neutralization", "setting": "pseudovirus; purified antibody curves", "result": "0.01 to 0.1", "unit": "µg/mL"}, {"measurement": "HIV p24 (viral inhibition)", "setting": "HIV SF162; FIG. 10A", "result": "6892.442±168.555"}, {"measurement": "HIV p24 (viral inhibition)", "setting": "HIV SF162; FIG. 10B", "result": "757.911±163.351"}, {"measurement": "HIV p24 (viral inhibition)", "setting": "HIV SF162; FIG. 10C", "result": "22914.671±2305.507"}, {"measurement": "HIV RNA levels", "setting": "HIV", "result": "transiently decrease HIV RNA levels"}]}
{"molecule": "TbnAb secreted 10-1074: 10-1074 antibody secreted into supernatants by transduced T cells", "values": [{"measurement": "binding to HIV-infected CD4+ T cells", "setting": "[3]", "result": "specific binding"}, {"measurement": "binding to HIV-infected CD4+ T cells", "setting": "[3]; listed as antibody secreted by HIV specific TbnAb cell lines", "result": "specifically binds"}, {"measurement": "neutralization of virus", "setting": "pseudovirus; supernatants diluted five fold (0.03 ug/ml of 10-1074), single-round infection 48 h, certain lines", "result": "20-30%"}, {"measurement": "binding to envelope-expressing cells", "setting": "[4]", "result": "bind"}, {"measurement": "binding to non-expressing cells", "setting": "non-expressing cells", "result": "not"}]}
{"molecule": "B1", "values": [{"measurement": "NK cell killing (ADCC; europium cytotoxicity assay, primary NK cells)", "setting": "[5]", "result": 34.5}, {"measurement": "increase in killing from ADCC", "setting": "[5]", "result": 10.5, "unit": "%"}]}
{"molecule": "B2", "values": [{"measurement": "median IC50 (neutralization)", "setting": "[6]", "result": 0.3, "unit": "µg/mL"}]}
